In patent US20220370461A1, “USE OF IMIDAZOPYRIMIDINE OR IMIDAZOTRIAZINE COMPOUNDS FOR PREVENTION, ALLEVIATION, OR TREATMENT OF COGNITIVE DISORDERS, OR FOR IMPROVING COGNITIVE FUNCTION” (SK BIOPHARMACEUTICALS CO., LTD., priority 2019, published 2022):

Key:
Assay type in all cases: in vivo
[1] = system: rat model exhibiting cognitive ability decreased by treatment with dizocilpine; assay: Y-maze test in rat model with cognitive ability decreased by dizocilpine
Experimental: (§1) Male rats (Wistar, 4 weeks old, Orient Bio Co., Ltd.) were purchased and acclimatized for one week or more in an animal cage. The experimental animals were raised in a light-controlled environment (illuminated for 12 hours/nonilluminated for 12 hours) and stored and managed according to the laboratory animal care standards of the Institutional Animal Care and Use Committee in an environment where a temperature of 19° C. to 25° C. and a relative humidity of 30% to 70% were maintained and water and food could be freely available. The rats were stabilized for one week or more, and then used for a Y-maze test. The rats were randomly divided into groups and the test was performed under illumination.
To create an animal model inducing symptoms of decreased cognitive ability, experimental animals were treated with dizocilpine, an NMDA receptor inhibitor.
(§2) Dizocilpine (purchased from Sigma) was dissolved in physiological saline used as a vehicle to be freshly prepared, and subcutaneously administered at a dose of 0.1 mg/kg in a volume of 1 ml per 1 kg of rat body weight 30 minutes before training. To a control group, only physiological saline was administered.
The test compound was dissolved in 5% DMSO in 9.5% Cremophor, and orally administered at doses of 0.1, 0.3, and 1 mg/kg in a volume of 5 ml per 1 kg of rat body weight one hour before training. To a control group, only vehicle (5% DMSO in 9.5% Cremophor) was administered.
The rats were handled by the experimenter for 3 minutes for two days, and a Y-maze test was performed the next day. After administration of vehicle or test compound intraperitoneally one hour before test and of vehicle or dizocilpine subcutaneously 30 minutes before test, the Y-maze test was performed for 5 minutes by placing the rat at the end of one arm in the Y-maze and allowing the rat to move freely. The three arms positioned at the same angle in the Y-maze had the same length of 45 cm, the same width of 10 cm, and the same height of 20 cm. A case where a rat visited three different arms in succession was defined as an alternation behavior.
The alternation rate was determined by identifying the alternation behavior of the rat based on the visit record to each arm in the Y-maze test, the data on the alternation rate between groups was analyzed by one-way ANOVA and Dunnett's multiple comparison test, and then the effect was defined as significant when p<0.05. All results were expressed as mean±SEM.

[2] = system: rat model exhibiting cognitive ability decreased by treatment with dizocilpine; assay: Object recognition test in rat model with cognitive ability decreased by dizocilpine; settings: for recognition index: P<0.01 vs negative control
Experimental: As an animal model of cognitive disorder, an animal model of which the cognitive ability was decreased by administering dizocilpine, a cognitive inhibitor, was used.
as §1, with “Committee (IACUC)” for “Committee”, “an object recognition” for “a Y-maze”
To create an animal model inducing symptoms of decreased cognitive ability, the experimental animals were treated with dizocilpine, an N-methyl-D-aspartate (NMDA) receptor inhibitor.
as §2
The test compound was dissolved in 5% DMSO (dimethyl sulfoxide) in 10% Cremophor, and orally administered at doses of 0.03, 0.1, and 0.3 mg/kg in a volume of 1 ml per 1 kg of rat body weight one hour before training. To a control group, only vehicle (5% DMSO in 10% Cremophor) was administered.
Each rat was handled by the experimenter for 3 minutes or more, and box acclimation for 3 minutes was performed two times in an empty box before the experiment. After administration of vehicle or test compound intraperitoneally at a dose of 1 mg/kg one hour before training and of vehicle or dizocilpine subcutaneously 30 minutes before training, the rats were boxed for training. Training was conducted by exposing the rats in a box in which two identical plastic cylinders or stainless square pyramids were placed. One hour after training, the test was performed in a box in which one plastic cylinder and one stainless square pyramid was placed. During the test, the time during which the rat explored each object was measured. The test results were analyzed using a stainless square pyramid as a novel object in the case of rats trained in a box in which two plastic cylinders were placed and a plastic cylinder as a novel object in the case of rats trained in a box in which two stainless steel pyramids were placed.
The recognition index was calculated based on the time during which the object was explored, the data on the recognition index between groups was analyzed by one-way analysis of variance (ANOVA) and Dunnett's multiple comparison test, and then the effect was defined as significant when p<0.05. All results were expressed as mean±SEM.

[3] = system: rat model undergone natural forgetting; assay: Object recognition test in natural forgetting rat model; settings: for Recognition index (mean ± SEM): test 24 h after training

Question: Which results are given for `C[C@]12N[C@H](Cc3ccccc31)c1ccccc12` [Dizocilpine, dizocilpine, reference compound]?
Answer: Alternation rate (mean ± SEM) ([1]; dizocilpine 0.1 mg/kg sc only (negative control), vehicle group 70.1 ± 2.8): 49.2 ± 5.3; alternation rate ([1]; dizocilpine only (negative control), P<0.001 vs vehicle group): 49.2 ± 5.3%; Recognition index (mean ± SEM) ([2]; dizocilpine 0.1 mg/kg sc only (negative control), vehicle group 63.29 ± 1.56): 49.77 ± 1.03

Question: How did the “Alternation rate (mean ± SEM)” value ([1]; dizocilpine 0.1 mg/kg sc + test compound 0.1 mg/kg po, 5 min Y-maze, actual/maximum possible alternations × 100) turn out when `Fc1ccc(-c2cnc3nc(COc4ccccn4)cn3c2)c(C(F)(F)F)c1` [test compound, 6-[4-fluoro-2-(trifluoromethyl)phenyl]-2-(2-pyridyloxymethyl)imidazo[1,2-a]pyrimidine] was run?
Answer: Its value is 67.3 ± 3.5.

Question: What about the “Alternation rate (mean ± SEM)” value ([1]; dizocilpine 0.1 mg/kg sc + test compound 0.3 mg/kg po) of the same compound?
Answer: The value was 57.3 ± 5.7.

Question: What about the “Alternation rate (mean ± SEM)” value ([1]; dizocilpine 0.1 mg/kg sc + test compound 1 mg/kg po) of the same compound?
Answer: The value was 49.9 ± 7.2.

Question: And the alternation rate ([1]; dizocilpine + test compound 0.1 mg/kg, P<0.001 vs negative control)?
Answer: The alternation rate was 67.3 ± 3.5%.

Question: What about the alternation rate ([1]; dizocilpine + test compound 0.3 mg/kg, tendency toward recovery) of the same compound?
Answer: Its alternation rate is 57.3 ± 5.7%.

Question: And the “Recognition index (mean ± SEM)” value ([2]; dizocilpine 0.1 mg/kg sc + test compound 0.03 mg/kg po, test 1 h after training, index = novel/total exploring time × 100)?
Answer: Its value is 51.95 ± 1.79.

Question: What about the “Recognition index (mean ± SEM)” value ([2]; dizocilpine 0.1 mg/kg sc + test compound 0.1 mg/kg po, test 1 h after training) of the same compound?
Answer: Its value is 57.95 ± 1.8.

Question: And the “Recognition index (mean ± SEM)” value ([2]; dizocilpine 0.1 mg/kg sc + test compound 0.3 mg/kg po, test 1 h after training)?
Answer: Its value is 57.62 ± 1.89.

Question: What about the recognition index ([2]; dizocilpine + test compound 0.1 mg/kg) of the same compound?
Answer: Its recognition index is 57.95±1.8%.

Question: What about the recognition index ([2]; dizocilpine + test compound 0.3 mg/kg) of the same compound?
Answer: Its recognition index is 57.62±1.89%.

Question: What about the “Recognition index (mean ± SEM)” value ([3]; test compound 0.1 mg/kg po, first experiment, vehicle 48.61 ± 1.87) of the same compound?
Answer: The value was 56.57 ± 2.37.

Question: What about the recognition index ([3]; test compound 0.1 mg/kg, first experiment, P<0.05 vs control) of the same compound?
Answer: The recognition index was 56.57±2.37.

Question: And the “Recognition index (mean ± SEM)” value ([3]; test compound 0.3 mg/kg po, first experiment)?
Answer: Its value is 59.77 ± 2.64.

Question: And the recognition index ([3]; test compound 0.3 mg/kg, first experiment, P<0.01 vs control)?
Answer: The recognition index was 59.77±2.64.

Question: What about the “Recognition index (mean ± SEM)” value ([3]; test compound 1 mg/kg po, second experiment, vehicle 51.20 ± 2.61) of the same compound?
Answer: The value was 60.91 ± 2.72.

Question: And the recognition index ([3]; test compound 1 mg/kg, second experiment, P<0.01 vs control)?
Answer: Its recognition index is 60.91±2.72.

Question: And the “Recognition index (mean ± SEM)” value ([3]; test compound 3 mg/kg po, second experiment)?
Answer: The value was 56.20 ± 2.27.

Question: And the recognition index ([3]; test compound 3 mg/kg, second experiment)?
Answer: Its recognition index is 56.20±2.27.
